According to PubChem BioAssay (NCI):
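Interpolation was linear, between the two tested concentrations surrounding the appropriate level; five concentrations were tested over 48 hours in 96-well plates. Abbreviation: GI50, concentration required for 50% inhibition of growth. TGI: total growth inhibition.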

Experiments:
Test in all cases: NCI tumour cell line growth inhibition, 48 h
MCF7 breast = system: MCF7 breast
SF-268 CNS = system: SF-268 CNS
SK-MEL-5 melanoma = system: SK-MEL-5 melanoma
NCI-H23 lung = system: NCI-H23 lung
COLO 205 colon = system: COLO 205 colon
UO-31 renal = system: UO-31 renal
TK-10 renal = system: TK-10 renal
SK-OV-3 ovarian = system: SK-OV-3 ovarian
RXF 393 renal = system: RXF 393 renal
HS 578T breast = system: HS 578T breast
DU-145 prostate = system: DU-145 prostate
BT-549 breast = system: BT-549 breast
NCI-H226 lung = system: NCI-H226 lung
MALME-3M melanoma = system: MALME-3M melanoma
UACC-257 melanoma = system: UACC-257 melanoma
SW-620 colon = system: SW-620 colon
U251 CNS = system: U251 CNS
CAKI-1 renal = system: CAKI-1 renal
PC-3 prostate = system: PC-3 prostate
OVCAR-5 ovarian = system: OVCAR-5 ovarian
MDA-MB-231 breast = system: MDA-MB-231 breast
SK-MEL-28 melanoma = system: SK-MEL-28 melanoma
HCC-2998 colon = system: HCC-2998 colon
A549 NSCLC = system: A549 NSCLC
SNB-19 CNS = system: SNB-19 CNS
CCRF-CEM leukemia = system: CCRF-CEM leukemia
SF-295 CNS = system: SF-295 CNS
OVCAR-3 ovarian = system: OVCAR-3 ovarian
IGROV1 ovarian = system: IGROV1 ovarian
MDA-MB-435 = system: MDA-MB-435
HL-60(TB) leukemia = system: HL-60(TB) leukemia
786-0 renal = system: 786-0 renal
SN12C renal = system: SN12C renal
KM12 colon = system: KM12 colon
NCI/ADR-RES ovarian = system: NCI/ADR-RES ovarian
MDA-MB-468 breast = system: MDA-MB-468 breast
SR leukemia = system: SR leukemia
M14 melanoma = system: M14 melanoma
HCT-116 colon = system: HCT-116 colon
A498 renal = system: A498 renal
OVCAR-4 ovarian = system: OVCAR-4 ovarian
HCT-15 colon = system: HCT-15 colon
SK-MEL-2 melanoma = system: SK-MEL-2 melanoma
T-47D breast = system: T-47D breast
LOX IMVI melanoma = system: LOX IMVI melanoma
SF-539 CNS = system: SF-539 CNS
K-562 leukemia = system: K-562 leukemia
SNB-75 CNS = system: SNB-75 CNS
EKVX NSCLC = system: EKVX NSCLC
NCI-H522 lung = system: NCI-H522 lung
MOLT-4 leukemia = system: MOLT-4 leukemia
HOP-62 NSCLC = system: HOP-62 NSCLC
HOP-92 NSCLC = system: HOP-92 NSCLC
NCI-H460 lung = system: NCI-H460 lung
HT29 colon = system: HT29 colon
OVCAR-8 ovarian = system: OVCAR-8 ovarian
ACHN renal = system: ACHN renal
UACC-62 melanoma = system: UACC-62 melanoma
RPMI-8226 leukemia = system: RPMI-8226 leukemia

NS(=O)(=O)c1ccc(NC(=O)CSc2ccc(-c3ccc(Cl)cc3)nn2)c(Br)c1
GI50 (MCF7 breast): 10.1 µM | TGI (MCF7 breast): 25.3 µM | GI50 (SF-268 CNS): 7.22 µM | TGI (SF-268 CNS): 34.4 µM | GI50 (SK-MEL-5 melanoma): 10.2 µM | TGI (SK-MEL-5 melanoma): 21.9 µM | GI50 (NCI-H23 lung): 11.1 µM | TGI (NCI-H23 lung): 23.2 µM | GI50 (COLO 205 colon): 20.7 µM | TGI (COLO 205 colon): 65.5 µM | GI50 (UO-31 renal): 29.5 µM | TGI (UO-31 renal): > 100 µM | GI50 (TK-10 renal): 18 µM | TGI (TK-10 renal): 38.9 µM | GI50 (SK-OV-3 ovarian): 4.39 µM | TGI (SK-OV-3 ovarian): 15.1 µM | GI50 (RXF 393 renal): 2.99 µM | TGI (RXF 393 renal): 13.8 µM | GI50 (HS 578T breast): 2.8 µM | TGI (HS 578T breast): 12.4 µM | GI50 (DU-145 prostate): 12.1 µM | TGI (DU-145 prostate): 27.2 µM | GI50 (BT-549 breast): 14.1 µM | TGI (BT-549 breast): 44.3 µM | GI50 (NCI-H226 lung): 2.62 µM | TGI (NCI-H226 lung): 9.4 µM | GI50 (MALME-3M melanoma): 9.36 µM | TGI (MALME-3M melanoma): 22.4 µM | GI50 (UACC-257 melanoma): 31.4 µM | TGI (UACC-257 melanoma): > 100 µM | GI50 (SW-620 colon): 32.8 µM | TGI (SW-620 colon): > 100 µM | GI50 (U251 CNS): 5.15 µM | TGI (U251 CNS): 21.7 µM | GI50 (CAKI-1 renal): 11 µM | TGI (CAKI-1 renal): 24.4 µM | GI50 (PC-3 prostate): 8.97 µM | TGI (PC-3 prostate): 49.2 µM | GI50 (OVCAR-5 ovarian): 17.2 µM | TGI (OVCAR-5 ovarian): 51 µM | GI50 (MDA-MB-231 breast): 3.7 µM | TGI (MDA-MB-231 breast): 14.6 µM | GI50 (SK-MEL-28 melanoma): 12.3 µM | TGI (SK-MEL-28 melanoma): 28.8 µM | GI50 (HCC-2998 colon): 11 µM | TGI (HCC-2998 colon): 40.4 µM | GI50 (A549 NSCLC): 11.7 µM | TGI (A549 NSCLC): 31.8 µM | GI50 (SNB-19 CNS): 3.75 µM | TGI (SNB-19 CNS): 14.9 µM | GI50 (CCRF-CEM leukemia): > 100 µM | TGI (CCRF-CEM leukemia): > 100 µM | GI50 (SF-295 CNS): 5.13 µM | TGI (SF-295 CNS): 16.1 µM | GI50 (OVCAR-3 ovarian): 12.9 µM | TGI (OVCAR-3 ovarian): 27.6 µM | GI50 (IGROV1 ovarian): 23.3 µM | TGI (IGROV1 ovarian): 76.4 µM | GI50 (MDA-MB-435): 32.6 µM | TGI (MDA-MB-435): > 100 µM | GI50 (HL-60(TB) leukemia): 50.9 µM | TGI (HL-60(TB) leukemia): > 100 µM | GI50 (786-0 renal): 11.3 µM | TGI (786-0 renal): 25.6 µM | GI50 (SN12C renal): 26.1 µM | TGI (SN12C renal): 83.3 µM | GI50 (KM12 colon): 36.3 µM | TGI (KM12 colon): > 100 µM | GI50 (NCI/ADR-RES ovarian): 7.75 µM | TGI (NCI/ADR-RES ovarian): > 100 µM | GI50 (MDA-MB-468 breast): 8.32 µM | TGI (MDA-MB-468 breast): 25 µM | GI50 (SR leukemia): 50.5 µM | TGI (SR leukemia): > 100 µM | GI50 (M14 melanoma): 32.4 µM | TGI (M14 melanoma): > 100 µM | GI50 (HCT-116 colon): 10.3 µM | TGI (HCT-116 colon): 29.6 µM | GI50 (A498 renal): 14 µM | TGI (A498 renal): 28 µM | GI50 (OVCAR-4 ovarian): 10.4 µM | TGI (OVCAR-4 ovarian): 42.6 µM | GI50 (HCT-15 colon): 11.8 µM | TGI (HCT-15 colon): 25.8 µM | GI50 (SK-MEL-2 melanoma): 15.8 µM | TGI (SK-MEL-2 melanoma): 32 µM | GI50 (T-47D breast): 4.59 µM | TGI (T-47D breast): 21.8 µM | GI50 (LOX IMVI melanoma): 10.4 µM | TGI (LOX IMVI melanoma): 24.2 µM | GI50 (SF-539 CNS): 4.15 µM | TGI (SF-539 CNS): 15.8 µM | GI50 (K-562 leukemia): 20.4 µM | TGI (K-562 leukemia): > 100 µM | GI50 (SNB-75 CNS): 1.79 µM | TGI (SNB-75 CNS): 15 µM | GI50 (EKVX NSCLC): 11 µM | TGI (EKVX NSCLC): 25.8 µM | GI50 (NCI-H522 lung): 10.5 µM | TGI (NCI-H522 lung): 26.3 µM | GI50 (MOLT-4 leukemia): 48.3 µM | TGI (MOLT-4 leukemia): > 100 µM | GI50 (HOP-62 NSCLC): 2.93 µM | TGI (HOP-62 NSCLC): 10.8 µM | GI50 (HOP-92 NSCLC): 3.96 µM | TGI (HOP-92 NSCLC): 19.2 µM | GI50 (NCI-H460 lung): 7.22 µM | TGI (NCI-H460 lung): 22.3 µM | GI50 (HT29 colon): 15.9 µM | TGI (HT29 colon): 46.8 µM | GI50 (OVCAR-8 ovarian): 10.3 µM | TGI (OVCAR-8 ovarian): 24.7 µM | GI50 (ACHN renal): 6.92 µM | TGI (ACHN renal): 19.6 µM | GI50 (UACC-62 melanoma): 13.7 µM | TGI (UACC-62 melanoma): 34.1 µM | GI50 (RPMI-8226 leukemia): 96.9 µM | TGI (RPMI-8226 leukemia): > 100 µM
